Experiment in all cases: NCI tumour cell line growth inhibition, 48 h
In test [1] the test system is MOLT-4.
Test [2] relates to SK-OV-3.
Test [3] deals with TK-10.
The test system of test [4] is OVCAR-3.
Test [5] relates to HCC 2998.
Test [6] has as its system COLO 205.
Test [7] deals with RXF 393.
The test system of test [8] is NCI-H460.
The test system of test [9] is K562.
In test [10] the test system is SF-268.
Test [11] relates to HCT-15.
The test system of test [12] is M14.
Test [13] relates to SR.
Test [14] concerns SK-MEL-2.
The subject of test [15] is Malme-3M.
In test [16] the test system is HOP-92.
The test system of test [17] is SF-539.
The test system of test [18] is SW-620.
For test [19], the system named is NCI-H226.
Test [20] concerns HL-60.

The values that follow come from ChEMBL document CHEMBL1201862, “PubChem BioAssay data set” (2004).

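Following 48 hours of exposure in 96-well plates, responses at five concentrations were used to interpolate endpoints linearly. The concentration for 50% growth inhibition is given as GI50.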 Calls of active or inactive are those of the source. Cut-off read from the data, not from the text of the source: active = GI50 up to about 1.1 µM and inactive = higher.

With `COC(=O)C1(F)C(=O)NC(=O)NC1O` (stereo not given), the GI50 in test [1] is 31.8 µM (inactive); in [2], > 100 µM (inactive); in [3], > 100 µM (inactive); in test [4], 62.7 µM (inactive); in [5] it was > 45.9 µM (inactive); in test [6] it was 40.4 µM (inactive). Also, the GI50 in [7] was > 100 µM (inactive); in [8], 50.6 µM (inactive); in test [9] it was > 84.5 µM (inactive); in test [10] it was > 100 µM (inactive); in test [11], 61.5 µM; in test [12] it was > 100 µM (inactive). Also, the GI50 was > 53 µM (inactive) in test [13]; > 100 µM (inactive) in test [14]; > 100 µM (inactive) in test [15]; > 58.9 µM (inactive) in test [16]; 25.4 µM (inactive) in test [17]; > 77.6 µM (inactive) in [18]. The figures for the GI50 in test [19] and in [20] were > 100 µM (inactive) and 31 µM (inactive), respectively.

As to `COc1ccc2cc(CN3CCC(C4CCN(Cc5ccc6cc(OC)ccc6c5)CC4)CC3)ccc2c1`, the GI50 in test [1] is 2.2 µM (inactive); in test [2], 26.3 µM (inactive); in test [3], 3.25 µM (inactive); in test [4] it was 3.1 µM (inactive); in test [5], 0.18 µM (active); in test [6], 1.78 µM (inactive). Moreover, the GI50 in test [7] is 5.16 µM (inactive); in test [8] it was 2.17 µM (inactive); in [9], 0.455 µM (active); in test [10] it was 3.16 µM (inactive); in test [11], 1.45 µM; in test [12], 2.33 µM (inactive). Further, the GI50 in test [13] is 1.24 µM (inactive); in test [14], 4.44 µM (inactive); in test [15], 2.17 µM (inactive); in [16], 2.37 µM (inactive); in test [17], 3.19 µM (inactive); in test [18] it was 2.64 µM (inactive). Moreover, the GI50 in test [19] was 16.6 µM (inactive); in test [20] it was 2.33 µM (inactive).

For the molecule `CCC(Sc1cc(Cl)c(C)cc1S(=O)(=O)Nc1nc(N)nc(N(C)C)n1)C(=O)O` (stereo not given), the GI50 in test [1], in [2], in test [3], in [4], in [5] and in test [6] was > 10 µM (inactive) throughout. For the same molecule, the GI50 in test [7] was > 10 µM (inactive); in test [8], > 10 µM (inactive); in test [9] it was > 10 µM (inactive); in test [10], > 10 µM (inactive); in test [11], more than 10 µM; in test [12], > 10 µM (inactive). Moreover, the GI50 in test [13], in test [14], in test [15], in test [16], in [17] and in [18] was > 10 µM (inactive) throughout. Also, the GI50 in test [19] and in test [20] was > 10 µM (inactive) in each case.

In the case of `C=C(Cl)C(Br)(CCl)CCC(Br)C(C)(C)Cl` (stereo not given), the GI50 in test [1] is 1.6 µM (inactive); in [2], 14 µM (inactive); in [3], 12.2 µM (inactive); in [4], 6.17 µM (inactive); in [5], 14.1 µM (inactive); in test [6], 4.53 µM (inactive). Besides, the GI50 in test [7] was 2.72 µM (inactive); in test [8], 6.81 µM (inactive); in test [9], 2.44 µM (inactive); in test [10] it was 2.93 µM (inactive); in test [11], 3.26 µM; in [12], 2.91 µM (inactive). For the same molecule, the GI50 in [13] was 2.92 µM (inactive); in test [14] it was 6.24 µM (inactive); in [15] it was 2.83 µM (inactive); in test [16] it was 9.75 µM (inactive); in test [17], 6.95 µM (inactive); in test [18], 1.71 µM (inactive). Moreover, the GI50 was 5.32 µM (inactive) in test [19] and 2.43 µM (inactive) in test [20].

In the case of `COC(=O)C#CC(N)=O`, the GI50 was 22.3 µM (inactive) in test [1]; > 100 µM (inactive) in [2]; > 55.6 µM (inactive) in [3]; > 100 µM (inactive) in test [4]; > 100 µM (inactive) in [5]; > 100 µM (inactive) in test [6]. Moreover, the GI50 was 31.4 µM (inactive) in test [7]; > 100 µM (inactive) in test [8]; 21.8 µM (inactive) in test [9]; > 100 µM (inactive) in test [10]; more than 100 µM in test [11]; 19.5 µM (inactive) in test [12]. For the same molecule, the GI50 in test [13] was 24.2 µM (inactive); in test [14], > 91.2 µM (inactive); in test [15], 13.4 µM (inactive); in test [16] it was 20.6 µM (inactive); in test [17] it was > 100 µM (inactive); in test [18], 23.8 µM (inactive). Also, the GI50 in test [19] was > 100 µM (inactive); in test [20], 4.94 µM (inactive).

`C/C(=N\N=C(/S)N1CCCCCC1)c1cccc[n+]1[O-]`: the GI50 in [1] is 0.129 µM (active); in test [2] it was 20.8 µM (inactive); in test [3] it was 21.5 µM (inactive); in test [4] it was 0.61 µM (active); in test [5] it was 1.71 µM (inactive); in test [6] it was 0.499 µM (active). In addition, the GI50 is 18.4 µM (inactive) in test [7]; 1.8 µM (inactive) in test [8]; 0.0883 µM (active) in test [9]; 9.29 µM (inactive) in test [10]; 0.845 µM in [11]; 2.72 µM (inactive) in test [12]. The GI50 in test [13] was 4.01 µM (inactive); in [14], 2.37 µM (inactive); in test [15], 1.6 µM (inactive); in [16], 11.1 µM (inactive); in [17], 4.54 µM (inactive); in test [18] it was 1.64 µM (inactive). Further, the GI50 in test [19] is 7.69 µM (inactive); in test [20] it was 0.336 µM (active).

With `CCOC(=O)C(SCCO)C(C(=O)OCC)n1ccc(=O)[nH]c1=O` (stereo not given), the GI50 is 3.01 µM (inactive) in [1]; > 100 µM (inactive) in test [2]; > 56.8 µM (inactive) in [3]; 23.3 µM (inactive) in test [4]; > 71.8 µM (inactive) in test [5]; 17.6 µM (inactive) in test [6]. Further, the GI50 was 24.2 µM (inactive) in test [7]; 57.1 µM (inactive) in test [8]; 5.55 µM (inactive) in [9]; 35.4 µM (inactive) in test [10]; 17.5 µM in [11]; 27.3 µM (inactive) in [12]. Also, the GI50 is 11.9 µM (inactive) in test [13]; 33.7 µM (inactive) in [14]; 12.5 µM (inactive) in test [15]; 13.8 µM (inactive) in test [16]; 31.5 µM (inactive) in test [17]; 12.9 µM (inactive) in test [18]. The figures for the GI50 in test [19] and in test [20] were > 35.6 µM (inactive) and 3.16 µM (inactive), respectively.
